Twelve compounds from article PMC7684622, “The application of L‐glutaminase for the synthesis of the immunomodulatory γ‐D‐glutamyl‐L‐tryptophan and the kokumi‐imparting γ‐D‐glutamyl peptides” (Food Science & Nutrition, 2020) can be followed below.

Format in all cases: biochemical
For assay [1], the system named is T1, L-glutaminase of Bacillus amyloliquefaciens.
T1 construct: gene ggt; commercial enzyme preparation (Amano Enzyme China); called L-Gln amidohydrolase EC 3.5.1.2 with gamma-glutamyl transpeptidase activity
Nature of the assay: transpeptidation, gamma-D-Glu-L-Trp formed, by HPLC / UPLC-MS. The following applies: gamma-glutamyl donor; fixed 25 mM L-Trp; apparent; read-out: Synthesis. The source says: transpeptidation, gamma-D-Glu-L-Trp formed, by HPLC / UPLC-MS on L-glutaminase of Bacillus amyloliquefaciens

Assay [2] has the same test system. Nature of the assay: transpeptidation, gamma-L-Glu-L-Trp formed, by HPLC / UPLC-MS. The following applies: gamma-glutamyl donor; fixed 25 mM L-Trp; apparent; read-out: Synthesis. The source says:
transpeptidation, gamma-L-Glu-L-Trp formed, by HPLC / UPLC-MS on L-glutaminase of Bacillus amyloliquefaciens

Assay [3] shares this test system. Nature of the assay: transpeptidation, product by HPLC / UPLC-MS. Particulars: acceptor; fixed 25 mM D-Gln; apparent; read-out: Synthesis. From the text: transpeptidation, product by HPLC / UPLC-MS on L-glutaminase of Bacillus amyloliquefaciens
The test system is the same in assay [4]. The experiment in a line: hydrolysis, HPLC / UPLC-MS. Particulars: hydrolysis reaction; apparent. From the text:
hydrolysis, HPLC / UPLC-MS on L-glutaminase of Bacillus amyloliquefaciens

As for `NC(=O)CC[C@@H](N)C(=O)O` [D-Gln], the Km in assay [1] amounted to 5.53 ± 0.98 mM.

With `NC(=O)CC[C@H](N)C(=O)O` [L-Gln], the Km in assay [2] worked out at 0.98 ± 0.08 mM.

`CSCC[C@H](N)C(=O)O` [L-Met]: the Km in assay [3] came out at 88.8 ± 6.12 mM.

As for `N[C@@H](Cc1ccccc1)C(=O)O` [L-Phe], the Km in assay [3] stood at 46.3 ± 2.32 mM.

Consider `N[C@@H](Cc1c[nH]c2ccccc12)C(=O)O` [L-Trp], for which the Km in assay [3] was determined as 32.5 ± 3.86 mM.

Consider `CC(C)[C@H](N)C(=O)O` [L-Val], for which the Km in assay [3] was determined as 76.6 ± 3.25 mM.

Regarding `CSCC[C@H](NC(=O)CC[C@@H](N)C(=O)O)C(=O)O` [γ-D-Glu-L-Met], the Km in assay [4] is 62.2 ± 4.61 mM.

On to `N[C@H](CCC(=O)N[C@@H](Cc1ccccc1)C(=O)O)C(=O)O` [γ-D-Glu-L-Phe], for which the Km in assay [4] amounted to 52.8 ± 3.02 mM.

On to `N[C@H](CCC(=O)N[C@@H](Cc1c[nH]c2ccccc12)C(=O)O)C(=O)O` [γ-D-Glu-L-Trp], for which the Km in assay [4] amounted to 36.7 ± 2.86 mM.

Regarding `CC(C)[C@H](NC(=O)CC[C@@H](N)C(=O)O)C(=O)O` [γ-D-Glu-L-Val], the Km in assay [4] is 68.8 ± 5.25 mM.

Regarding `N[C@@H](CCC(=O)N[C@@H](Cc1c[nH]c2ccccc12)C(=O)O)C(=O)O` [γ-L-Glu-L-Trp], the Km in assay [4] was found to be 15.7 ± 1.82 mM.

On to `CC(C)[C@H](NC(=O)CC[C@@H](NC(=O)CC[C@@H](N)C(=O)O)C(=O)O)C(=O)O` [γ-[D-Glu]2-L-Val], for which the Km in assay [4] was 90.4 ± 6.25 mM.
